# Experimental data: patent publication US10597388B2, “Pyridazinone herbicides” (FMC CORPORATION, priority 2014, dated 2020)
# Tests used:
# Assay type in all cases: in vivo
# [1] = tested on: nutsedge, yellow (yellow nutsedge, Cyperus esculentus); assay: Test E greenhouse herbicide test, pre- and postemergence; details: Preemergence
# In short: (§1)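 Visual ratings, 0 for no effect up to 100 for complete control, were taken relative to controls 14 to 21 d after greenhouse treatment. Applications used a surfactant-containing non-phytotoxic solvent formulation, sprayed either preemergence on silt loam-sown seed or postemergence on 1- to 4-leaf plants 2-18 cm tall in peat-based potting medium.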
# [2] = tested on: crabgrass, Brazilian (Brazilian crabgrass, Digitaria horizontalis); assay: as above
# In short: as §1
# kochia (Kochia scoparia) = assay: as above
# In short: as §1
# [3] = tested on: Italian ryegrass (Lolium multiflorum); assay: as above
# In short: as §1
# [4] = tested on: field bindweed (Convolvulus arvensis); assay: as above
# In short: as §1
# [5] = tested on: beggarticks (hairy beggarticks, Bidens pilosa); assay: as above
# In short: as §1
# [6] = tested on: foxtail, green (green foxtail, Setaria viridis); assay: as above; details: Preemergence
# In short: as §1
# [7] = tested on: waterhemp (common waterhemp, Amaranthus rudis); assay: as above
# In short: as §1
# [8] = tested on: johnsongrass (Sorghum halepense); assay: as above; details: Preemergence
# In short: as §1
# [9] = tested on: oilseed rape (Brassica napus); assay: Test D controlled growth environment herbicide test, pre- and postemergence
# In short: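 Rating is visual, 0–100 scale (100 = complete control), made against untreated plants 14–21 d after treatment in controlled growth conditions. Postemergence sprays went onto 1- to 4-leaf plants in peat medium; preemergence sprays onto silt loam after sowing; formulation included a surfactant.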
# [10] = 62 g ai/ha, scale 0 to 100 (0 no effect, 100 complete control)
# [11] = 125 g ai/ha, scale 0 to 100 (0 no effect, 100 complete control)
# [12] = 16 g ai/ha, scale 0 to 100, 0 no effect, 100 complete control
# [13] = 31 g ai/ha, scale 0 to 100, 0 no effect, 100 complete control
# [14] = 250 g ai/ha, visual, scale 0 no effect to 100 complete control
# [15] = 62 g ai/ha, Postemergence, scale 0 to 100 (0 no effect, 100 complete control)
# [16] = 62 g ai/ha, Preemergence, scale 0 to 100 (0 no effect, 100 complete control)
# [17] = 125 g ai/ha, Postemergence, scale 0 to 100 (0 no effect, 100 complete control)
# [18] = 250 g ai/ha, Postemergence, scale 0 to 100 (0 no effect, 100 complete control)
# [19] = Postemergence, 16 g ai/ha, visual, scale 0 no effect to 100 complete control
# [20] = Postemergence, 31 g ai/ha, visual, scale 0 no effect to 100 complete control
# [21] = Preemergence, 16 g ai/ha, scale 0 to 100, 0 no effect, 100 complete control
# [22] = Preemergence, 31 g ai/ha, scale 0 to 100, 0 no effect, 100 complete control
# [23] = Preemergence, 125 g ai/ha, visual, scale 0 no effect to 100 complete control
# [24] = Preemergence, 250 g ai/ha, visual, scale 0 no effect to 100 complete control
# [25] = 125 g ai/ha, Preemergence, scale 0 to 100 (0 no effect, 100 complete control)
# [26] = 125 g ai/ha, visual, scale 0 no effect to 100 complete control
# [27] = Postemergence, 31 g ai/ha, scale 0 to 100 (0 no effect, 100 complete control)
# [28] = Postemergence, 125 g ai/ha, visual rating on scale 0 (no effect) to 100 (complete control), 14 to 21 d
# [29] = Postemergence, 250 g ai/ha, scale 0 to 100 (0 no effect, 100 complete control)
# [30] = Preemergence, 125 g ai/ha, scale 0 to 100 (0 no effect, 100 complete control)
# [31] = Preemergence, 250 g ai/ha, scale 0 to 100 (0 no effect, 100 complete control)
# [32] = postemergence, 62 g ai/ha, scale 0 to 100, 0 no effect, 100 complete control
smiles,measurement,setting,value
"Cc1ccc2sc(C)c(-c3c(O)c(C)nn(C)c3=O)c2c1 [Compound 1, 4-(2,5-dimethylbenzo[b]thien-3-yl)-5-hydroxy-2,6-dimethyl-3(2H)-pyridazinone]","Plant response rating, Nutsedge, Yellow",[1]; [10],15
same,"Plant response rating, Nutsedge, Yellow",[1]; [11],50
same,"Plant response rating, Nutsedge, Yellow",[1]; [12],0
same,"Plant response rating, Nutsedge, Yellow",[1]; [13],10
same,"Plant response rating, Nutsedge, Yellow",[1]; [14],70
same,"Plant response rating, Crabgrass, Brazil",[2]; [15],15
same,"Plant response rating, Crabgrass, Brazil",[2]; [16],80
same,"Plant response rating, Crabgrass, Brazil",[2]; [17],20
same,"Plant response rating, Crabgrass, Brazil",[2]; [18],35
same,"Plant response rating, Crabgrass, Brazil",[2]; [19],0
same,"Plant response rating, Crabgrass, Brazil",[2]; [20],15
same,"Plant response rating, Crabgrass, Brazil",[2]; [21],0
same,"Plant response rating, Crabgrass, Brazil",[2]; [22],10
same,"Plant response rating, Crabgrass, Brazil",[2]; [23],100
same,"Plant response rating, Crabgrass, Brazil",[2]; [24],100
same,"Plant response rating, Kochia",kochia (Kochia scoparia); [16],5
same,"Plant response rating, Kochia",kochia (Kochia scoparia); [21],0
same,"Plant response rating, Kochia",kochia (Kochia scoparia); [22],0
same,"Plant response rating, Kochia",kochia (Kochia scoparia); [23],35
same,"Plant response rating, Kochia",kochia (Kochia scoparia); [24],85
same,"Plant response rating, Ryegrass, Italian",[3]; [15],50
same,"Plant response rating, Ryegrass, Italian",[3]; [16],100
same,"Plant response rating, Ryegrass, Italian",[3]; [17],65
same,"Plant response rating, Ryegrass, Italian",[3]; [25],100
same,"Plant response rating, Ryegrass, Italian",[3]; [18],90
same,"Plant response rating, Ryegrass, Italian",[3]; [19],20
same,"Plant response rating, Ryegrass, Italian",[3]; [20],35
same,"Plant response rating, Ryegrass, Italian",[3]; [21],70
same,"Plant response rating, Ryegrass, Italian",[3]; [22],95
same,"Plant response rating, Ryegrass, Italian",[3]; [24],100
same,"Plant response rating, Field Bindweed",[4]; [15],70
same,"Plant response rating, Field Bindweed",[4]; [16],80
same,"Plant response rating, Field Bindweed",[4]; [17],85
same,"Plant response rating, Field Bindweed",[4]; [18],95
same,"Plant response rating, Field Bindweed",[4]; [19],65
same,"Plant response rating, Field Bindweed",[4]; [20],65
same,"Plant response rating, Field Bindweed",[4]; [21],5
same,"Plant response rating, Field Bindweed",[4]; [22],20
same,"Plant response rating, Field Bindweed",[4]; [23],95
same,"Plant response rating, Field Bindweed",[4]; [24],100
same,"Plant response rating, Beggarticks",[5]; [15],98
same,"Plant response rating, Beggarticks",[5]; [16],100
same,"Plant response rating, Beggarticks",[5]; [17],100
same,"Plant response rating, Beggarticks",[5]; [18],100
same,"Plant response rating, Beggarticks",[5]; [19],70
same,"Plant response rating, Beggarticks",[5]; [20],85
same,"Plant response rating, Beggarticks",[5]; [21],100
same,"Plant response rating, Beggarticks",[5]; [22],100
same,"Plant response rating, Beggarticks",[5]; [23],100
same,"Plant response rating, Beggarticks",[5]; [24],100
same,"Plant response rating, Foxtail, Green",[6]; [10],70
same,"Plant response rating, Foxtail, Green",[6]; [12],0
same,"Plant response rating, Foxtail, Green",[6]; [13],15
same,"Plant response rating, Foxtail, Green",[6]; [26],90
same,"Plant response rating, Foxtail, Green",[6]; [14],90
same,"Plant response rating, Waterhemp",[7]; [15],95
same,"Plant response rating, Waterhemp",[7]; [16],100
same,"Plant response rating, Waterhemp",[7]; [17],98
same,"Plant response rating, Waterhemp",[7]; [25],100
same,"Plant response rating, Waterhemp",[7]; [18],100
same,"Plant response rating, Waterhemp",[7]; [19],70
same,"Plant response rating, Waterhemp",[7]; [20],85
same,"Plant response rating, Waterhemp",[7]; [21],35
same,"Plant response rating, Waterhemp",[7]; [22],90
same,"Plant response rating, Waterhemp",[7]; [24],100
same,"Plant response rating, Johnsongrass",[8]; [10],0
same,"Plant response rating, Johnsongrass",[8]; [12],0
same,"Plant response rating, Johnsongrass",[8]; [13],0
same,"Plant response rating, Johnsongrass",[8]; [26],30
same,"Plant response rating, Johnsongrass",[8]; [14],40
same,Oilseed Rape plant response rating,[9]; [27],0
same,"Plant response rating, Oilseed Rape",[9]; [28],35
same,"Plant response rating, Oilseed Rape",[9]; [29],60
same,"Plant response rating (scale of 0 to 100), Oilseed Rape","[9]; Preemergence, 31 g ai/ha",0
same,"Plant response rating, Oilseed Rape","[9]; Preemergence, 62 g ai/ha, scale 0 to 100 (0 no effect, 100 complete control)",0
same,"Plant response rating, Oilseed Rape",[9]; [30],5
same,"Plant response rating, Oilseed Rape",[9]; [31],20
same,"Plant response rating, Oilseed Rape",[9]; [32],15
CCOC(=O)Oc1c(C)nn(C)c(=O)c1-c1c(C)sc2ccc(C)cc12 [Compound 82],"Plant response rating, Nutsedge, Yellow",[1]; [10],10
same,"Plant response rating, Nutsedge, Yellow",[1]; [11],40
same,"Plant response rating, Nutsedge, Yellow",[1]; [13],0
same,"Plant response rating, Nutsedge, Yellow",[1]; [14],65
same,"Plant response rating, Crabgrass, Brazil",[2]; [15],30
same,"Plant response rating, Crabgrass, Brazil",[2]; [16],100
same,"Plant response rating, Crabgrass, Brazil",[2]; [17],50
same,"Plant response rating, Crabgrass, Brazil",[2]; [25],100
same,"Plant response rating, Crabgrass, Brazil",[2]; [18],50
same,"Plant response rating, Crabgrass, Brazil",[2]; [20],20
same,"Plant response rating, Crabgrass, Brazil",[2]; [22],75
same,"Plant response rating, Crabgrass, Brazil",[2]; [24],100
same,"Plant response rating, Kochia",kochia (Kochia scoparia); [15],98
same,"Plant response rating, Kochia",kochia (Kochia scoparia); [16],90
same,"Plant response rating, Kochia",kochia (Kochia scoparia); [17],95
same,"Plant response rating, Kochia",kochia (Kochia scoparia); [25],100
same,"Plant response rating, Kochia",kochia (Kochia scoparia); [18],98
same,"Plant response rating, Kochia",kochia (Kochia scoparia); [20],90
same,"Plant response rating, Kochia",kochia (Kochia scoparia); [22],20
same,"Plant response rating, Kochia",kochia (Kochia scoparia); [24],100
same,"Plant response rating, Ryegrass, Italian",[3]; [15],70
same,"Plant response rating, Ryegrass, Italian",[3]; [16],95
same,"Plant response rating, Ryegrass, Italian",[3]; [17],75
same,"Plant response rating, Ryegrass, Italian",[3]; [25],100
same,"Plant response rating, Ryegrass, Italian",[3]; [18],80
same,"Plant response rating, Ryegrass, Italian",[3]; [20],50
same,"Plant response rating, Ryegrass, Italian",[3]; [22],75
same,"Plant response rating, Ryegrass, Italian",[3]; [24],100
same,"Plant response rating, Field Bindweed",[4]; [15],80
same,"Plant response rating, Field Bindweed",[4]; [16],50
same,"Plant response rating, Field Bindweed",[4]; [17],95
same,"Plant response rating, Field Bindweed",[4]; [25],100
same,"Plant response rating, Field Bindweed",[4]; [18],85
same,"Plant response rating, Field Bindweed",[4]; [20],85
same,"Plant response rating, Field Bindweed",[4]; [22],65
same,"Plant response rating, Field Bindweed",[4]; [24],95
same,"Plant response rating, Beggarticks",[5]; [15],90
same,"Plant response rating, Beggarticks",[5]; [16],100
same,"Plant response rating, Beggarticks",[5]; [17],98
same,"Plant response rating, Beggarticks",[5]; [25],100
same,"Plant response rating, Beggarticks",[5]; [18],98
same,"Plant response rating, Beggarticks",[5]; [20],90
same,"Plant response rating, Beggarticks",[5]; [22],100
same,"Plant response rating, Beggarticks",[5]; [24],100
same,"Plant response rating, Foxtail, Green",[6]; [10],70
same,"Plant response rating, Foxtail, Green",[6]; [11],75
same,"Plant response rating, Foxtail, Green",[6]; [13],20
same,"Plant response rating, Foxtail, Green",[6]; [14],90
same,"Plant response rating, Waterhemp",[7]; [16],90
same,"Plant response rating, Waterhemp",[7]; [17],85
same,"Plant response rating, Waterhemp",[7]; [25],100
same,"Plant response rating, Waterhemp",[7]; [18],90
same,"Plant response rating, Waterhemp",[7]; [20],70
same,"Plant response rating, Waterhemp",[7]; [22],85
same,"Plant response rating, Waterhemp",[7]; [24],100
same,"Plant response rating, Johnsongrass",[8]; [11],35
same,"Plant response rating, Johnsongrass",[8]; [13],0
same,"Plant response rating, Johnsongrass",[8]; [14],50
same,Oilseed Rape plant response rating,[9]; [27],25
same,"Plant response rating, Oilseed Rape",[9]; [28],60
same,"Plant response rating, Oilseed Rape",[9]; [29],80
same,"Plant response rating (scale of 0 to 100), Oilseed Rape","[9]; Preemergence, 31 g ai/ha",30
same,"Plant response rating (scale of 0 to 100), Oilseed Rape","[9]; Preemergence, 62 g ai/ha",35
same,"Plant response rating, Oilseed Rape",[9]; [30],35
same,"Plant response rating, Oilseed Rape",[9]; [31],60
same,"Plant response rating, Oilseed Rape",[9]; [32],45
